This series is described as follows: in vitro. To be noted: rat, gh3-tre-luc cells.

Counter-ions that a name gives are not always drawn. Bounds are passed on as bounds.

`COc1c(Cl)ccc(Cl)c1C(=O)O` [Dicamba]: the 50% cytotoxic concentration (CC50) (usually the concentration at which the toxic effect on the cells reaches its halfway point) at 24 h (AC50 (uM) modified / 1000) is more than 90 µM.

With `CCC(C(=O)NC(=O)NC(C)=O)c1ccccc1` (stereo not shown) [Acetylpheneturide], the half-maximal cytotoxic concentration (CC50) at 24 h (AC50 (uM) modified / 1000) was more than 50 µM.

Consider `O=S(=O)(O)C(F)(F)C(F)(F)C(F)(F)C(F)(F)C(F)(F)C(F)(F)F` [Potassium perfluorohexanesulfonate], for which the CC50 at 24 h (AC50 (uM) modified / 1000, Tox21_110001=Tox21_300396, viability, 1 nM T3 present, 24 h) was more than 90 µM.

On to `CC1CS(=O)(=O)CCN1/N=C/c1ccc([N+](=O)[O-])o1` (stereo not shown) [Nifurtimox], for which the 50% cytotoxic concentration (CC50) at 24 h (AC50 (uM) modified / 1000) amounted to 8.46 µM.

The compound `Nc1ccc(S(=O)(=O)Nc2cnc3ccccc3n2)cc1` [Sulfaquinoxaline] gave a CC50 at 24 h (AC50 (uM) modified / 1000) of more than 90 µM.

In turn, `C[C@@H]1CN(c2c(F)c(N)c3c(=O)c(C(=O)O)cn(C4CC4)c3c2F)C[C@H](C)N1` [Sparfloxacin] yielded a cytotoxic concentration (CC50) at 24 h (AC50 (uM) modified / 1000) of more than 50 µM.

`O=C1O[C@H]([C@H](O)CO)C(O)=C1O` [Isoascorbic acid] displayed a CC50 at 24 h (AC50 (uM) modified / 1000) of more than 90 µM.

On to `Cc1oc(=O)oc1CN1CCN(c2cc3c(cc2F)c(=O)c(C(=O)O)c2n3C(C)S2)CC1` (stereo not shown) [Prulifloxacin], for which the 50% cytotoxic concentration (CC50) at 24 h (AC50 (uM) modified / 1000) is more than 50 µM.

`O=CN(CCO)CCO` [N,N-Bis(2-hydroxyethyl)formamide]: where the note is “AC50 (uM) modified / 1000”, the CC50 at 24 h is more than 90 µM.

In the case of `CC(C)(COP(=O)(O)OP(=O)(O)OC[C@H]1O[C@@H](n2cnc3c(N)ncnc32)[C@H](O)[C@@H]1OP(=O)(O)O)C(O)C(=O)NCCC(=O)NCCS` (stereo partly shown) [Coenzyme A trilithium dihydrate], for the setting “AC50 (uM) modified / 1000”, the cytotoxic concentration (CC50) at 24 h was more than 50 µM.

The compound `CCCCCC1=CCCC1=O` [2-Pentyl-2-cyclopenten-1-one] gave a 50% cytotoxic concentration (CC50) at 24 h (AC50 (uM) modified / 1000) of more than 90 µM.

`Oc1noc2c1CCNC2` [Gaboxadol] returned a CC50 at 24 h (AC50 (uM) modified / 1000) of more than 50 µM.

Regarding `CCOC(=O)c1ccc(O)cc1` [Ethylparaben], the half-maximal cytotoxic concentration (CC50) at 24 h (AC50 (uM) modified / 1000) is more than 90 µM.

Under “AC50 (uM) modified / 1000”, `COc1c2c(cc3c1OCO3)CCN(C)C2` [Hydrocotarnine hydrobromide] came in with a CC50 at 24 h of more than 20 µM.

In turn, `C=CC(=O)OCC(C)C` [Isobutyl acrylate] showed a 50% cytotoxic concentration (CC50) at 24 h (AC50 (uM) modified / 1000) of more than 90 µM.

Consider `CCCCCCOC(=O)c1ccccc1C(=O)OCCCCCC` [Dihexyl phthalate], for which, under “AC50 (uM) modified / 1000”, the CC50 at 24 h was more than 90 µM.

For the compound `CCCC(C)c1ccccc1O` (stereo not shown) [2-(1-Methylbutyl)phenol], where the note is “AC50 (uM) modified / 1000”, the cytotoxic concentration (CC50) at 24 h amounted to 54.4 µM.

The compound `CC(=O)OC(c1ccccc1)C(Cl)(Cl)Cl` (stereo not shown) [2,2,2-Trichloro-1-phenylethyl acetate] registered a CC50 at 24 h (AC50 (uM) modified / 1000) of more than 90 µM.

On to `Nc1nc2ncc(CNc3ccc(C(=O)N[C@@H](CCC(=O)O)C(=O)O)cc3)nc2c(=O)[nH]1` [Folic acid], for which, under “AC50 (uM) modified / 1000”, the cytotoxic concentration (CC50) at 24 h is more than 90 µM.

Take `FC1(F)C(F)(F)C(F)(F)C2(F)C(F)(F)C(F)(F)C(F)(F)C(F)(F)C2(F)C1(F)F` (stereo not shown) [Perflunafene]: the CC50 at 24 h (AC50 (uM) modified / 1000) was more than 50 µM.

For the compound `CC(C)OC(=O)C(O)(c1ccc(Cl)cc1)c1ccc(Cl)cc1` [Chloropropylate], the CC50 at 24 h (AC50 (uM) modified / 1000, Tox21_110001=Tox21_301914, viability, 1 nM T3 present, 24 h) was 74.2 µM.

On to `O=c1[nH]c2cc(C(F)(F)F)c(N3CCOCC3)cc2n(CP(=O)(O)O)c1=O` [Fanapanel], for which the CC50 at 24 h (AC50 (uM) modified / 1000) is more than 50 µM.

Where the note is “AC50 (uM) modified / 1000”, `Cc1cc(C(=C2C=CC(=Nc3ccc(S(=O)(=O)O)cc3)C=C2)c2ccc(Nc3ccc(S(=O)(=O)O)cc3)cc2)cc(S(=O)(=O)O)c1N` [C.I. Acid Blue 22] yielded a cytotoxic concentration (CC50) at 24 h of more than 60 µM.

Where the note is “AC50 (uM) modified / 1000”, `C=C[C@H]1CN2CC[C@H]1C[C@H]2[C@H](OC(=O)OCC)c1ccnc2ccc(OC)cc12` [Quinine ethyl carbonate] had a half-maximal cytotoxic concentration (CC50) at 24 h of more than 50 µM.

Regarding `OCC(F)(F)F` [2,2,2-Trifluoroethanol], the CC50 at 24 h (AC50 (uM) modified / 1000) is more than 100 µM.

Regarding `Cc1ccc2nc(-c3ccc(N)cc3)sc2c1S(=O)(=O)O`, the CC50 at 24 h (AC50 (uM) modified / 1000) is more than 50 µM.

Compound `Cc1cc(C(F)(C(F)(F)F)C(F)(F)F)ccc1NC(=O)c1cccc(I)c1C(=O)NC(C)(C)CS(C)(=O)=O` [Flubendiamide] had a 50% cytotoxic concentration (CC50) at 24 h (AC50 (uM) modified / 1000) of more than 70 µM.

`CC(C)CC(O)CC(C)C` [2,6-Dimethyl-4-heptanol] showed a half-maximal cytotoxic concentration (CC50) at 24 h (AC50 (uM) modified / 1000) of more than 90 µM.

Compound `CC(=O)Nc1ccc(S(=O)(=O)Nc2ccc([N+](=O)[O-])cc2)cc1` [Sulfanitran] showed a CC50 at 24 h (AC50 (uM) modified / 1000) of more than 50 µM.

`C[C@H]1C(=O)O[C@@H]2CCN3CC=C(COC(=O)[C@](C)(O)[C@]1(C)O)[C@H]23` [Monocrotaline]: the CC50 at 24 h (AC50 (uM) modified / 1000) was more than 90 µM.

With `O=C(O)CCC(=O)Nc1ccc(S(=O)(=O)Nc2nccs2)cc1` [Succinylsulfathiazole], the CC50 at 24 h (AC50 (uM) modified / 1000) is more than 20 µM.

Under “AC50 (uM) modified / 1000”, `CC(C)=CC=O` [3-Methylbut-2-enal] gave a CC50 at 24 h of more than 100 µM.

In turn, `COC(=O)c1cc(Cl)cc(Cl)c1` [Methyl 3,5-dichlorobenzoate] came in with a CC50 at 24 h (AC50 (uM) modified / 1000) of more than 90 µM.

`C=Cc1ccc(C=C)cc1` [1,4-Divinylbenzene] returned a CC50 at 24 h (AC50 (uM) modified / 1000) of more than 100 µM.

`CC(C)CCCCCOC(=O)CS` [Isooctyl 2-mercaptoacetate] registered a CC50 at 24 h (AC50 (uM) modified / 1000) of more than 90 µM.

For the setting “AC50 (uM) modified / 1000”, `O=C(COCCOCCOCC(=O)Nc1c(I)cc(I)c(C(=O)O)c1I)Nc1c(I)cc(I)c(C(=O)O)c1I` [Biliscopin] gave a CC50 at 24 h of more than 50 µM.

`COC(=O)NC(=S)Nc1ccccc1NC(=S)NC(=O)OC` [Thiophanate-methyl] returned a CC50 at 24 h (AC50 (uM) modified / 1000) of more than 90 µM.

Under “AC50 (uM) modified / 1000”, `CN1CC(=O)N2[C@H](c3ccc4c(c3)OCO4)c3[nH]c4ccccc4c3C[C@@H]2C1=O` [Tadalafil] came in with a CC50 at 24 h of more than 50 µM.

Take `O=C(CS)Nc1ccccc1` [Thioglycolic acid anilide]: the CC50 at 24 h (AC50 (uM) modified / 1000) is 33.8 µM.

Under “AC50 (uM) modified / 1000”, `O=Cc1ccccc1O` [Salicylaldehyde] registered a CC50 at 24 h of more than 90 µM.

Turning to `O=C(OCc1ccccc1)c1ccc(O)cc1` [Benzylparaben], where the note is “AC50 (uM) modified / 1000”, the 50% cytotoxic concentration (CC50) at 24 h is more than 90 µM.

`O=C(O)c1cc(-c2ccccc2)nc2ccccc12` [Cinchophen] showed a CC50 at 24 h (AC50 (uM) modified / 1000) of more than 50 µM.

Where the note is “AC50 (uM) modified / 1000”, `O=C1NC(=O)c2cc([N+](=O)[O-])ccc21` [4-Nitrophthalimide] showed a CC50 at 24 h of more than 90 µM.

Consider `OCC(O)CS` (stereo not shown) [1-Thioglycerol], for which the CC50 at 24 h (AC50 (uM) modified / 1000) was more than 90 µM.

Under “AC50 (uM) modified / 1000”, `C1CN(P2(N3CC3)=NP(N3CC3)(N3CC3)=NP(N3CC3)(N3CC3)=N2)CCO1` (stereo not shown) [Fotretamine] came in with a 50% cytotoxic concentration (CC50) at 24 h of more than 50 µM.

Turning to `O=c1ccn(C2OC(COP(=O)(O)OC3C(CO)OC(n4ccc(=O)[nH]c4=O)C3O)C(O)C2O)c(=O)[nH]1` (stereo not shown) [Uricase from Bacillus fastidiosus], the cytotoxic concentration (CC50) at 24 h (AC50 (uM) modified / 1000) was more than 50 µM.

`O=C(O)c1ccccc1C(=O)Nc1cccc2ccccc12` [Naptalam] returned a cytotoxic concentration (CC50) at 24 h (AC50 (uM) modified / 1000, Tox21_110001=Tox21_302279, viability, 1 nM T3 present, 24 h) of more than 90 µM.

Where the note is “AC50 (uM) modified / 1000”, `O=C1CCCC(=O)C1` [1,3-Cyclohexanedione] had a cytotoxic concentration (CC50) at 24 h of more than 90 µM.

With `CC(=N)S` [Thioacetamide], the CC50 at 24 h (AC50 (uM) modified / 1000) is more than 90 µM.

As to `Cc1cc(C(C)(C)C)cc(C)c1CC1=NCCN1` [Xylometazoline hydrochloride], under “AC50 (uM) modified / 1000”, the CC50 at 24 h is more than 20 µM.

For `NCCCCCC(=O)O` [6-Aminocaproic acid], the half-maximal cytotoxic concentration (CC50) at 24 h (AC50 (uM) modified / 1000) was more than 20 µM.

Compound `CNC` [Dimethylammonium nitrate] showed a CC50 at 24 h (AC50 (uM) modified / 1000, Tox21_110001=Tox21_200580, viability, 1 nM T3 present, 24 h) of more than 90 µM.

As to `CCOC(=O)CC(=O)C(=O)OCC` [Sodium diethyl oxaloacetate], the CC50 at 24 h (AC50 (uM) modified / 1000) was more than 90 µM.

Compound `C=CC(=O)OC` [Methyl acrylate] registered a 50% cytotoxic concentration (CC50) at 24 h (AC50 (uM) modified / 1000) of more than 90 µM.

`C=C(C)C(=O)OCCCCCC` [Hexyl methacrylate]: where the note is “AC50 (uM) modified / 1000”, the CC50 at 24 h was more than 90 µM.

Under “AC50 (uM) modified / 1000”, `O=[N+]([O-])c1ccc2[nH]ncc2c1` [5-Nitroindazole] came in with a 50% cytotoxic concentration (CC50) at 24 h of more than 90 µM.

The compound `CC(=O)c1cc(C(C)(C)C)cc2c1CCC2(C)C` [1-(6-tert-Butyl-1,1-dimethyl-2,3-dihydro-1H-inden-4-yl)ethanone] had a half-maximal cytotoxic concentration (CC50) at 24 h (AC50 (uM) modified / 1000) of 40.7 µM.

For `COc1cccc2c1C(=O)c1c(O)c3c(c(O)c1C2=O)C[C@@](O)(C(C)=O)C[C@@H]3O[C@H]1C[C@H](N)[C@H](O)[C@H](C)O1` [Daunomycin hydrochloride], for the setting “AC50 (uM) modified / 1000”, the 50% cytotoxic concentration (CC50) at 24 h came out at 0.244 µM.
